According to patent publication US8609661B2, “Pyrimido-pyrrolo-quinoxalinedione inhibitors of cystic fibrosis transmembrane conductance regulator protein and uses therefor” (The Regents of the University of California, priority 2009, dated 2013):

What was measured:
[1] = molecular target: CFTR (Homo sapiens, UniProt P13569); settings: literature; depending on cell type and membrane potential; read-out: IC50 for CFTR chloride conductance block; cited from earlier work
[2] = molecular target: T1, human wildtype CFTR (Homo sapiens, UniProt P13569); assay: Fluorescence platereader assay of CFTR-mediated iodide influx (YFP quenching) in FRT cells; type: cell-based; settings: FRT, Table 2, screening; for inhibition at 5 µM: read-out: % Inhibition at 5 μM; for inhibition at 25 µM: read-out: % Inhibition at 25 μM
T1 construct: expressed in transfected cells; host or cells: Fischer rat thyroid (FRT) cells
Outline: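 Fischer rat thyroid cells co-expressing human wildtype CFTR and the YFP-H148Q/1152L halide sensor were seeded at 20,000 cells per well in 96-well black-walled plates and assayed 48 h later at confluence. After PBS washes and a 15 min incubation, CFTR was maximally activated with an agonist mixture. Fluorescence was recorded for 2 s before and 10 s after adding 160 μL iodide-substituted PBS, and iodide influx rates came from non-linear regression.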

T1 sequence (P13569 whole entry): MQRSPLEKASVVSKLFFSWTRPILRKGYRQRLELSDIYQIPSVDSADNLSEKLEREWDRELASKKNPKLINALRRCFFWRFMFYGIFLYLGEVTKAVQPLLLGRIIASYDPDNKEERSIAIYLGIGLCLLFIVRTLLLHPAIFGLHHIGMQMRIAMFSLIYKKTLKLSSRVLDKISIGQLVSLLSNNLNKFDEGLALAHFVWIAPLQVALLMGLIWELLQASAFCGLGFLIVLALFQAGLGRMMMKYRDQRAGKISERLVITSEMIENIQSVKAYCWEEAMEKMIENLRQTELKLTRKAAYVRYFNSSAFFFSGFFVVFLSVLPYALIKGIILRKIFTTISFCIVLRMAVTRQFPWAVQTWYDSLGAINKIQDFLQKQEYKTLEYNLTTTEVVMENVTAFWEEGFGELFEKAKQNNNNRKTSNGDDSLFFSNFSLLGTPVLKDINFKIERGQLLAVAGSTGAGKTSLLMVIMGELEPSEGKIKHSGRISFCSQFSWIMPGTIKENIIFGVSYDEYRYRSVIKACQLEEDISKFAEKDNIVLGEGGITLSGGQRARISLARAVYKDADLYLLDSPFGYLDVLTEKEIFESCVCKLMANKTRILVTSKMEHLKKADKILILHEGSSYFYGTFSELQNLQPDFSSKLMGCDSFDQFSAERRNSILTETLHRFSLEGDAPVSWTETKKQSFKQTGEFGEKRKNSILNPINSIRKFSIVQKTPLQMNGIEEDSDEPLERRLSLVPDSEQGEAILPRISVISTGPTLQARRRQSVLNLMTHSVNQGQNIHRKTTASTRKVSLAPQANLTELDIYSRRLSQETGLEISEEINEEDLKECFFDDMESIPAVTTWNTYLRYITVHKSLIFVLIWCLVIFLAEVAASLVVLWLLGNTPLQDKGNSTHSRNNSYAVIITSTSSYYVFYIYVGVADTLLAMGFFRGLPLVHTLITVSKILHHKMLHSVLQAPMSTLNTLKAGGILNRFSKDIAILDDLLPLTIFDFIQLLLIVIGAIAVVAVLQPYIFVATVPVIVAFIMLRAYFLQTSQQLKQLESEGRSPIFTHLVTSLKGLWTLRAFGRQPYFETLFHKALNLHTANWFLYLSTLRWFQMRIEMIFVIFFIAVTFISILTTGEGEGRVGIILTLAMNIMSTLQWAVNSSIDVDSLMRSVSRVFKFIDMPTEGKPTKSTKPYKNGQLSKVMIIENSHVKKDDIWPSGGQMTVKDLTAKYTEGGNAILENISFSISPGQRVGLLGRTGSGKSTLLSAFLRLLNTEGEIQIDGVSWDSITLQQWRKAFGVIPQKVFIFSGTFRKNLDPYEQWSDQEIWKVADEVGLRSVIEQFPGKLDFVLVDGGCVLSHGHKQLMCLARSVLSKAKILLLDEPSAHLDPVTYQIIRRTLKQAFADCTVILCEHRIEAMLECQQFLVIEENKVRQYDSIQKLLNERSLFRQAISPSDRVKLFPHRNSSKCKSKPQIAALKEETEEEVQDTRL
Chain of CFTR (P13569 whole entry, species assumed): as the sequence (P13569 whole entry) above

Row | Compound | inhibition at 5 µM [2] [%] | inhibition at 25 µM [2] [%] | IC50 [1] [µM]
1 | O=C(CNc1ccc2ccccc2c1)N/N=C/c1cc(Br)c(O)c(Br)c1O [GlyH-101] |  |  | ~5
2 | Cc1cccc(-c2c3c(=O)n(C)c(=O)n(C)c3c3n2-c2ccccc2NC3c2ccc(O)c(O)c2)c1 (stereo not drawn) [PPQ-243, 7,9-Dimethyl-11-(3-methylphenyl)-6-(3,4-dihydroxyphenyl)-5,6-dihydro-pyrimido[4′,5′-3,4]pyrrolo[1,2-a]quinoxaline-8,10-(7H,9H)-dione] | 12 | 72 | 
3 | COc1cc(O)ccc1C1Nc2ccccc2-n2c(-c3cccc(C)c3)c3c(=O)n(C)c(=O)n(C)c3c21 (stereo not drawn) [PPQ-245, 7,9-Dimethyl-11-(3-methylphenyl)-6-(2-methoxy-4-hydroxyphenyl)-5,6-dihydro-pyrimido[4′,5′-3,4]pyrrolo[1,2-a]quinoxaline-8,10-(7H,9H)-dione] | 20 | 55 | 
4 | COc1ccc(O)c(C2Nc3ccccc3-n3c(-c4cccc(C)c4)c4c(=O)n(C)c(=O)n(C)c4c32)c1 (stereo not drawn) [PPQ-246, 7,9-Dimethyl-11-(3-methylphenyl)-6-(2-hydroxy-5-methoxylphenyl)-5,6-dihydro-pyrimido[4′,5′-3,4]pyrrolo[1,2-a]quinoxaline-8,10-(7H,9H)-dione] | < 10 | 50 | 
5 | Cc1cc2c(cc1C)-n1c(-c3ccccc3)c3c(=O)n(C)c(=O)n(C)c3c1C(c1cc(O)ccc1O)N2 (stereo not drawn) [PPQ-247, 2,3,7,9-Tetramethyl-11-phenyl-6-(2,5-dihydroxyphenyl)-5,6-dihydro-pyrimido[4′,5′-3,4]pyrrolo[1,2-a]quinoxaline-8,10-(7H,9H)-dione] | 13 | 58 | 
6 | COc1cc(C2Nc3ccccc3-n3c(-c4ccccc4)c4c(=O)n(C)c(=O)n(C)c4c32)ccc1O (stereo not drawn) [PPQ-248, 7,9-Dimethyl-11-phenyl-6-(3-methoxy-4-hydroxyphenyl)-5,6-dihydro-pyrimido[4′,5′-3,4]pyrrolo[1,2-a]quinoxaline-8,10-(7H,9H)-dione] | 5 | 64 | 
7 | Cc1cccc(-c2c3c(=O)n(C)c(=O)n(C)c3c3n2-c2ccccc2NC3c2ccccc2)c1 (stereo not drawn) [PPQ-250, 7,9-Dimethyl-11-(3-methylphenyl)-6-phenyl-5,6-dihydro-pyrimido[4′,5′-3,4]pyrrolo[1,2-a]quinoxaline-8,10-(7H,9H)-dione] | 49 | 64 | 
8 | Cn1c(=O)c2c(-c3ccccc3)n3c(c2n(C)c1=O)C(c1ccc2c(c1)OCO2)Nc1ccccc1-3 (stereo not drawn) [PPQ-301, 7,9-Dimethyl-11-phenyl-6-(1,3-benzodioxol-5-yl)-5,6-dihydro-pyrimido[4′,5′-3,4]pyrrolo[1,2-a]quinoxaline-8,10-(7H,9H)-dione] | 28 | 58 | 
9 | Cc1cccc(-c2c3c(=O)n(C)c(=O)n(C)c3c3n2-c2ccccc2NC3c2ccc3c(c2)OCO3)c1 (stereo not drawn) [PPQ-302, 7,9-Dimethyl-11-(3-methylphenyl)-6-(1,3-benzodioxol-5-yl)-5,6-dihydro-pyrimido[4′,5′-3,4]pyrrolo[1,2-a]quinoxaline-8,10-(7H,9H)-dione] | 26 | 63 | 

Second part, led by results:

Row | inhibition at 5 µM [2] [%] | inhibition at 25 µM [2] [%] | Compound | IC50 [1] [µM]
10 | 15 | 74 | Cc1ccccc1-c1c2c(=O)n(C)c(=O)n(C)c2c2n1-c1ccccc1NC2c1cccc(O)c1 (stereo not drawn) [PPQ-242, 7,9-Dimethyl-11-(2-methylphenyl)-6-(3-hydroxyphenyl)-5,6-dihydro-pyrimido[4′,5′-3,4]pyrrolo[1,2-a]quinoxaline-8,10-(7H,9H)-dione] | 
11 | 32 | 56 | Cn1c(=O)c2c(-c3ccccc3F)n3c(c2n(C)c1=O)C(c1ccc(F)cc1F)Nc1ccccc1-3 (stereo not drawn) [PPQ-244, 7,9-Dimethyl-11-(2-fluorophenyl)-6-(2,4-difluorophenyl)-5,6-dihydro-pyrimido[4′,5′-3,4]pyrrolo[1,2-a]quinoxaline-8,10-(7H,9H)-dione] | 
12 | 21 | 64 | Cn1c(=O)c2c(-c3ccccc3)n3c(c2n(C)c1=O)C(c1ccc(F)cc1)Nc1ccccc1-3 (stereo not drawn) [PPQ-249, 7,9-Dimethyl-11-phenyl-6-(4-fluorophenyl)-5,6-dihydro-pyrimido[4′,5′-3,4]pyrrolo[1,2-a]quinoxaline-8,10-(7H,9H)-dione] | 
13 | 13 | 62 | COc1cc(C2Nc3ccccc3-n3c(-c4ccccc4F)c4c(=O)n(C)c(=O)n(C)c4c32)ccc1O (stereo not drawn) [PPQ-251, 7,9-Dimethyl-11-(2-fluorophenyl)-6-(3-methoxy-4-hydroxyphenyl)-5,6-dihydro-pyrimido[4′,5′-3,4]pyrrolo[1,2-a]quinoxaline-8,10-(7H,9H )-dione] | 
14 | < 10 | 78 | COc1ccc(-c2c3c(=O)n(C)c(=O)n(C)c3c3n2-c2ccccc2NC3c2cccc(F)c2F)cc1 (stereo not drawn) [PPQ-252, 7,9-Dimethyl-11-(4-methoxyphenyl)-6-(2,3-difluorophenyl)-5,6-dihydro-pyrimido[4′,5′-3,4]pyrrolo[1,2-a]quinoxaline-8,10-(7H,9H)-dione] | 
